Test results: US20210300832A1, “Micronutrient Concentrate and use thereof” (FINE AGROCHEMICALS LIMITED, priority 2018, published 2021)
Where two headings read alike, the source gives them in different places.

Assay: Solubility test of metal salts/chelates in glycol and other solvents
Method: The following mixtures were prepared from anhydrous copper-EDTA and the solvents described below.
Each time 1,2-propanediol was used as solvent. EDTA is ethylene-diamine tetra-acetic acid; DTPA is diethylenetriaminepentaacetic acid. […]

[1] = 1 wt % Cu.EDTA in the named solvent, same procedure as examples 1-9

| Structure (SMILES) | clear solution with 1 wt % Cu.EDTA (comparison solvents) [1] | clear solution with 1 wt % Cu.EDTA (comparison solvents) |
| --- | --- | --- |
| OCCCCO [1,4-butanediol] | None of these solvents were able to provide a clear solution | – |
| CC(N)CO (centres unmarked) [2-aminopropanol] | – | None of these solvents were able to provide a clear solution |
| C[S+](C)[O-] [DMSO] | – | None of these solvents were able to provide a clear solution |
| CC(C)=O [acetone] | None of these solvents were able to provide a clear solution | – |
| CC(C)O [iso-propylalcohol] | – | None of these solvents were able to provide a clear solution |
